According to PubChem BioAssay (NCI):
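Protocol summary: plate cells (96-well), add compound at 5 concentrations, incubate 48 h, interpolate endpoints linearly. Here, GI50 denotes the concentration required for 50% inhibition of growth. TGI: total growth inhibition.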

How the values were obtained:
Test in all cases: growth of human tumour cells (NCI), 48 h
ACHN renal = system: ACHN renal
BT-549 breast = system: BT-549 breast
HCT-116 colon = system: HCT-116 colon
HS 578T breast = system: HS 578T breast
MOLT-4 leukemia = system: MOLT-4 leukemia
OVCAR-8 ovarian = system: OVCAR-8 ovarian
SK-MEL-5 melanoma = system: SK-MEL-5 melanoma
UACC-62 melanoma = system: UACC-62 melanoma

Row | SMILES | GI50 (ACHN renal) [µM] | TGI (ACHN renal) [µM] | GI50 (BT-549 breast) [µM] | TGI (BT-549 breast) [µM] | GI50 (HCT-116 colon) [µM] | TGI (HCT-116 colon) [µM] | GI50 (HS 578T breast) [µM] | TGI (HS 578T breast) [µM] | GI50 (MOLT-4 leukemia) [µM] | TGI (MOLT-4 leukemia) [µM] | GI50 (OVCAR-8 ovarian) [µM] | TGI (OVCAR-8 ovarian) [µM] | GI50 (SK-MEL-5 melanoma) [µM] | TGI (SK-MEL-5 melanoma) [µM] | GI50 (UACC-62 melanoma) [µM] | TGI (UACC-62 melanoma) [µM]
1 | COc1cc(NS(=O)(=O)c2ccc(-c3cnc(C4CC4)o3)cc2)ccc1F | 0.594 | 46 | 2.02 | 20.3 | 0.29 | 14.1 | 0.376 | 23.5 | 0.564 | > 100 | 0.745 | 56.5 | 0.638 | 13.1 | 0.313 | 13.8
2 | Cc1ccc(C(=O)Nc2ccc(CN3CCN(C)CC3)c(C(F)(F)F)c2)cc1C#Cc1cnc(N)c2ccccc12 | 0.133 | 0.631 | 1.93 | 8.71 | 0.336 | 1.01 | 0.647 | 2.07 | 0.224 | 1.28 | 0.476 | 2.09 | 0.835 | 1.62 | 0.565 | 1.25
3 | CC[CH2][Sn]([Cl])([Cl])[CH2]CC.Oc1ccccc1C=NCCN=Cc1ccccc1O | 10.1 | 21.8 |  |  | 4.89 | 16.3 | 2.33 | 9.09 | 4.88 | > 100 | 12.3 | 27.7 | 4.87 | 17.5 | 5.77 | 19.6
4 | COc1ccc(-n2cc(-c3cc(OC)c(OC)c(OC)c3)[nH]c2=O)cc1Cl | > 100 | > 100 |  |  | > 100 | > 100 | 34.9 | > 100 | > 100 | > 100 |  |  | > 100 | > 100 | 51.1 | > 100
5 | CNc1nc(N)c(N=O)c(Nc2ccc(Br)cc2)n1 |  | > 100 |  | > 100 |  | > 100 |  | 65 |  | > 100 |  | > 100 |  | > 100 |  | > 100
6 | COc1cc2c(c(OC)c1OC)C(=O)[C@@H]1c3ccc([N+](=O)[O-])cc3C(=O)N(CCCBr)[C@H]21 | 15.2 | 58.5 | 14.6 | 55.9 | 4.59 | 51 | 5.71 | 35.5 | 19.8 | > 100 | 10.2 | 37.6 | 11 | 27.5 | > 100 | > 100
7 | COC(=O)C12C3C4C1C1C2C3C41NC(=O)c1csc([C@@H](C[C@H](C(C)C)N(C)C(=O)[C@@H](NC(=O)[C@H]2CCCCN2C)C2CC2)OC(C)=O)n1 (stereo partly specified) | 0.0903 | > 33.3 | < 0.00333 | 4.1 | 0.0123 | > 33.3 | 0.00773 | > 33.3 | 0.00729 | > 33.3 | 0.0404 | > 33.3 | 0.00977 | 0.526 | 0.00595 | > 33.3
8 | COC(=O)[C@H](Cc1c[nH]c2ccccc12)NC(=O)[C@@H](OC)[C@@H]1Cc2cc3cc(OC4CC(OC5CC(O)C(O)C(C)O5)C(O)C(C)O4)c(C)c(O)c3c(O)c2C(=O)[C@H]1OC1CC(OC2CC(OC3CC(C)(O)C(O)C(C)O3)C(O)C(C)O2)C(O)C(C)O1 (stereo partly specified) | 0.0475 | 0.907 | 0.00527 | 0.031 | 0.00537 | > 16.5 | 0.00566 | 0.157 | 0.00654 |  | 0.0097 | > 16.5 | 0.00621 | 0.0308 | 0.00361 | 0.00983
9 | CO[C@H]1C=C[C@@]23c4cc5c(cc4CO[C@]2(O)CN(C)[C@H]3C1)OCO5 |  | > 100 |  | > 100 |  | > 100 |  | > 100 |  | > 100 |  | > 100 |  | > 100 |  | > 100
10 | C=C[C@H]1C[C@@H]2C[C@@H]3[C@H]4C/C=C\C(=O)NCCCC5NC(=O)C(=C(O)/C=C/[C@@H]4CC(=O)[C@H]3[C@@H]2[C@H]1C)C5=O (stereo partly specified) | 0.18 | 0.343 | 0.158 | 0.322 | 0.287 | 1.1 | 0.191 | 0.423 |  |  | 0.193 | 0.38 | 0.161 | 0.309 | 1.45 | 2.88
11 | COc1ccccc1Cn1cc2c(c1-c1ccccc1)CCc1cnoc1-2 | 5.27 | > 100 |  |  | 2.8 | > 100 | 1.45 | 6.32 | 3.42 | > 100 | 6.22 | > 100 | 1.93 | 11.2 | 2.34 | > 100
12 | COc1ccc2nc3cc(Cl)ccc3c(NCCN)c2c1 | 1.58 | 3.17 | 1.81 | 3.39 |  |  |  |  | 1.25 | 3.68 |  |  |  |  |  | 
13 | CCN(CC)CCCC(C)Nc1cnc(C(=O)Nc2cccc3ccc(OC)nc23)cn1 (stereo unspecified) | 1.83 | 3.48 | 1.95 | 4.47 | 1.62 | 3.44 | 11 | 28.5 | 2.04 | 4.67 | 2.74 | 8.41 | 1.77 | 3.21 | 1.79 | 3.21
14 | O=C1OC(c2ccco2)=N/C1=C\c1cccc([N+](=O)[O-])c1 |  | > 100 |  | > 100 |  | > 100 |  | > 100 |  | > 100 |  | > 100 |  | > 100 |  | > 100
15 | CSc1nc2cc(S(=O)(=O)N3CCCCC3)ccc2s1 |  | > 100 |  | > 100 |  | > 100 |  | > 100 |  | > 100 |  | > 100 |  | > 100 |  | > 100
16 | COc1ccc(-c2nnc(COc3ccc(NC(=O)Nc4ccc(Cl)c(C(F)(F)F)c4)cc3F)o2)cc1 | 2.55 | 10.7 |  |  | 2.49 | 11.7 | 3.26 | 18.1 | 2.39 | 11.6 | 3.12 | 15.8 | 2.1 | 5.36 | 3.12 | 16.4
17 | C=C1C(=O)O[C@H]2[C@H]1CC/C(COC(=O)c1cc3ccccc3s1)=C\CC[C@@]1(C)O[C@@H]21 | 1.5 | 2.93 |  |  | 0.591 | 2.1 | 2.89 | 8.52 | 1.88 | 7.69 | 1.8 | 5.14 | 1.75 | 3.21 | 1.85 | 3.79
18 | Cc1ccc(NC(=O)NCCCOc2ccc(N3C(N)=NC(N)=NC3(C)C)cc2Cl)cc1S(=O)(=O)F | 49.3 | > 100 |  |  | 2.22 | > 100 | 16.7 | > 100 | 9.26 | > 100 | 7.85 | > 100 | 1.88 | 21.5 | 4.05 | > 100
19 | N.N.O=C([O-])P(=O)([O-])[O-].[Na+].[Pt+4] | > 100 | > 100 |  |  | > 100 | > 100 |  |  | > 100 | > 100 | > 100 | > 100 | > 100 | > 100 | > 100 | > 100
20 | Cn1c2ccccc2c2c3[nH]c(=O)[nH]c(=O)c3c3c4ccccc4n(C)c3c21 | 1.33 | 6.62 | 2.83 | 18.7 | 2.37 | 12.9 | 2.44 | 8.21 |  |  | 2.94 | 14.1 |  |  | 6.64 | > 100
21 | CCC(=O)c1c(C(F)(F)F)n([O-])c2ccc(C)cc2[n+]1=O | 5.02 | 14.2 | 1.35 | 5.43 | 13.8 | > 50 |  |  | 14.1 | > 50 | 2.83 | > 50 | 4.33 | 13.9 | 7.7 | 28.9
22 | O=C(/C(=C/c1cccc([N+](=O)[O-])c1)c1ccccc1)c1ccccc1 | 2.3 | 5.41 | 3.38 | 13.1 | 2.01 | 4.25 | 3.89 | > 100 | 3.13 | 11.6 |  |  | 2.39 | 6.73 | 2.8 | 12.1
23 | CCCCCCC(=O)C/C(=N/NC(N)=S)C(=O)NC1C2CC3CC(C2)CC1C3 (stereo unspecified) |  | > 100 |  |  |  | > 100 |  |  |  | > 100 |  | > 100 |  | > 100 |  | > 100
24 | CN1C(=O)c2ccccc2NC(=O)C12O[C@@H]2c1cccc(O)c1 (stereo partly specified) |  | > 100 |  |  |  | > 100 |  | > 100 |  | > 100 |  | > 100 |  | > 100 |  | > 100
25 | C/C=C(\C)CC/C=C/CO[Si](C)(C)C(C)(C)C |  | > 100 |  |  |  | > 100 |  | > 100 |  | 81.3 |  | > 100 |  | > 100 |  | > 100
